This note sets out measurements from patent US20090253706A1, “Methods and Compositions for the Treatment of Rheumatoid Arthritis and Other Inflammatory Diseases” (priority 2008, published 2009).

Holding throughout (format): in vivo
The test system of one assay is K/BxN mice. In words: Arthritis prevention in K/BxN mice, treatment from weaning, rear ankle thickness. The text has this:
K/BxN TCR transgenic mice express a TCR reactive to a self-peptide derived from the glucose-6-phosphate isomerase (GPI), presented by the MHC class II molecule A^g7 (Korganow et al. (1999) Immunity, 10:451-461; Kouskoff et al. (1996) Cell, 87:811-822; Matsumoto et al. (1999) Science, 286:1732-1735). K/BxN mice spontaneously develop a very aggressive form of arthritis at 3 to 4 weeks of age. […] The arthritis experienced by K/BxN mice is joint specific and allows for the scoring of the arthritis by caliper measurement of ankle thickness (Korganow et al. (1999) Immunity, 10:451-461; Ji et al. (2001) J. Exp. Med., 194:321-330).
Starting at weaning (21 days of age) K/BxN mice were administered 400 mg/kg of 1-methyl-D-tryptophan, 400 mg/kg of 1-methyl-L-tryptophan, or carrier alone b.i.d. (twice daily) by p.o. (oral) gavage.
Mice were given 400 mg/kg/dose (100 μl total volume) of D/L-1MT or D-1MT diluted in METHOCEL™/Tween® (0.5% Tween 80, 0.5% methylcellulose (v/v in water) twice daily by oral gavage (p.o.) using a curved feeding needle as described (Muller et al. (2005) Nat. Med., 11:312-319). 1MT was administered on a b.i.d. schedule, once in the morning and once in the evening. Methotrexate (MTX) was diluted in 0.5% carboxymethyl cellulose and administered by oral gavage at a range of doses 1-25 mg/kg/dose (0.1 cc/20 g mouse) using a curved feeding needle. The mice were given one dose per week as described (Asanuma et al. (2002) Eur. J. Pharmacol., 435:253-258). Control mice were given an equal volume of carrier alone (METHOCEL™/Tween®).
For the arthritis prevention experiments, MTX and/or 1MT treatment was started on the day of weaning (age 21 days). For the treatment of established arthritis, MTX and/or 1MT was administered after the mice had measurable arthritis.
The two rear ankles of MTX, 1MT, MTX+1 MT, or carrier-treated K/BxN mice were measured starting at weaning (3 wk of age) as described (Mandik-Nayak et al. (2002) Proc. Natl. Acad. Sci., 99:14368-14373). Measurement of ankle thickness was made above the footpad axially across the ankle joint using a Fowler Metric Pocket Thickness Gauge.

Assay [1] concerns anti-glucose-6-phosphate isomerase (GPI) Ig. In words: Serum anti-GPI Ig titer in treated K/BxN mice. The conditions noted are these: FIG. 2A; IgM and IgG isotypes, vs carrier alone. The text has this:
(§1) FIG. 2A is a graph of the titer of serum anti-glucose-6-phosphate isomerase (GPI) IgM and IgG isotypes from K/BxN mice treated with 1-methyl-tryptophan or carrier alone. FIG. 2B is a graph of the number of anti-GPI secreting cells per 10^5 cells present in the spleen, draining lymph nodes (dLN), and non-draining lymph nodes (non-dLN) of K/BxN mice treated with 1-methyl-tryptophan or carrier alone.
(§2) K/BxN mice produce arthritogenic Abs directed against GPI, which develop at high titers because of the preferential help that B cells expressing GPI-specific immunoglobulins receive from GPI-reactive T cells displaying the transgene-encoded TCR.

Assay [2] deals with anti-GPI antibody secreting cells. In words: Anti-GPI antibody secreting cells in spleen and lymph nodes of treated K/BxN mice. The conditions noted are these: FIG. 2B; spleen, draining lymph nodes (dLN), non-draining lymph nodes (non-dLN), vs carrier alone.
Source text: as §1, §2

The mark [3] stands for this setting: Example 1, FIG. 1, 400 mg/kg b.i.d. p.o. from 21 days of age, vs carrier alone.
The mark [4] stands for this setting: Example 2, FIG. 3, 400 mg/kg p.o. b.i.d. from 21 days, n=5.
Setting [5] is: FIG. 4, MTX 1, 10 or 25 mg/kg weekly p.o. from 3 weeks of age, increasing amounts.

Molecules are shown by their SMILES.

With `Cn1cc(C[C@H](N)C(=O)O)c2ccccc21` [1-methyl-L-tryptophan], in the assay on K/BxN mice (setting [3]), the “degree of arthritis (mean ankle thickness)” value is on record as “greatly reduced the degree of arthritis” and the onset of arthritis result is “delayed the onset of arthritis”.
Regarding `Cn1cc(C[C@@H](N)C(=O)O)c2ccccc21` [1-methyl-D-tryptophan], the “degree of arthritis (mean ankle thickness)” value in the assay with K/BxN mice (setting [3]) is reported as “greatly reduced the degree of arthritis”; with K/BxN mice (setting [4]), “reduced the degree of arthritis”. The onset of arthritis result in the assay on K/BxN mice (setting [3]) and in the assay with K/BxN mice (setting [4]) was “delayed the onset of arthritis” throughout. Besides, the arthritis development result in the assay on K/BxN mice (FIG. 3 legend, 400 mg/kg p.o. b.i.d. from 21 days) is “inhibits arthritis development”.
For the compound `CN(Cc1cnc2nc(N)nc(N)c2n1)c1ccc(C(=O)N[C@@H](CCC(=O)O)C(=O)O)cc1` [MTX, methotrexate], in the assay with K/BxN mice (setting [5]), the degree of arthritis result was “reduced the degree of arthritis” and the onset of arthritis entry is reported as “inhibited the onset of arthritis”. The arthritis development result in the assay on K/BxN mice (FIG. 4 legend, MTX 1, 10 or 25 mg/kg weekly p.o. from 3 weeks of age) is on record as “dose-dependent inhibition of arthritis development”.
With `Cn1cc(C[C@H](N)C(=O)O)c2ccccc21` (racemic) [1-MT, 1-methyl-tryptophan], in assay [1], the “levels of serum anti-GPI Ig” value is given as “reduced levels of serum anti-GPI Ig”. For the same compound, the “numbers of anti-GPI antibody secreting cells” value in assay [2] is recorded as “reduced numbers of anti-GPI antibody secreting cells”.
In the case of `Cn1cc(CC(N)C(=O)O)c2ccccc21` [1-methyl-D/L-tryptophan], in the assay on K/BxN mice (setting [4]), the “degree of arthritis (mean ankle thickness)” value was “reduced the degree of arthritis” and the onset of arthritis entry is given as “delayed the onset of arthritis”.
